Patent US11357779B2 (G1 Therapeutics, Inc., priority 2018, dated 2022)
Where two headings read alike, the source gives them in different places.

Assay: Plasma concentration versus time of Compound I and metabolite Compound III in patients dosed QD or BID with Form B of Compound II plus fulvestrant
Type: in vivo, human
Settings: human, plasma, oral; for concentration at 8 day / concentration at 15 day: Cohort 7, 150 mg BID of Form B; for concentration at 8 day: Day 8; for concentration at 15 day: Day 15
Description: Patients were enrolled into 1 of 2 parallel, independently operating, dose-escalation dosing cohorts with Form B of Compound II administered continuously either once daily (QD) or twice daily (BID) with food with fixed-dose fulvestrant (intramuscularly every 14 days for the first three injections and then every 28 days). Pre- or perimenopausal patients also received goserelin for the duration of study treatment. A […] agonist was started at least 28 days before the first dose of Form B, and those patients who were taking another LHRH agonist were switched to goserelin on Day 1. Patients were split into […] cohorts providing once a day (QD) dosing of 200 mg, 300 mg, 400 mg, 500 mg, or 650 mg of Form B, or twice a day (BID) dosing of 100 mg, 150 mg, or 200 mg of Form B. The second dose in BID cohorts was not administered in the evening until at least 12 hours after the initial morning dose of Form B. The dosing cohorts for Form B of Compound II are provided in Table 1.
Blood samples were collected at the following time points relative to the morning dose of Form B at Day 1 and at Day 29: pre-dose (0 hour) and 1, 2, 3, 4, 6, 8, 10, 12 (prior to the evening dose in the BID cohorts), and 24 (prior to the next day's morning dose) hours after dosing. A 5-minute time window was allowed for samples collected between the predose and 3 hours after Form B dosing. A 15-minute window was allowed for samples collected between 4 to 12 hours after Form B dosing. A 1-hour window was allowed for the sample collected 24 hours after Form B dosing. Blood samples for Compound I PK trough levels were collected pre-dose at Day 8, Day 15, and Day 22 prior to the morning administration of Compound I. Plasma concentrations of Compound I and its metabolite, Compound III, were measured using validated methods.
Analysis of plasma concentration versus time data for calculation of standard pharmacokinetic (PK) parameters following oral administration was conducted using Phoenix WinNonlin version 6.3 using actual blood sampling times.

[1] = 150 mg, read-out: Trough Compound I Concentration, Max
[2] = 150 mg, read-out: Trough Compound I Concentration, Median

## CC(C)N1CCN(c2ccc(Nc3ncc4cc5n(c4n3)C3(CCCCC3)CNC5=O)nc2)CC1 [Compound I, 2′-((5-(4-isopropylpiperazin-1-yl)pyridin-2-yl)amino)-7′,8′-dihydro-6′H-spiro[cyclohexane-1,9′-pyrazino[1′,2′:1,5]pyrrolo[2,3-d]pyrimidin]-6′-one]
100 mg, Cohort 6, 100 mg BID of Form B, Day 29, 0.0 h, read-out: Compound I Concentration, Median
  concentration at 0 h: 4.13 ng/mL
100 mg, Cohort 6, 100 mg BID of Form B, Day 29, 0.0 h, read-out: Compound I Concentration, Min
  concentration at 0 h: 1.54 ng/mL
100 mg, Cohort 6, 100 mg BID of Form B, Day 29, 1.0 h, read-out: Compound I Concentration, Max
  concentration at 1 h: 15.7 ng/mL
100 mg, Cohort 6, 100 mg BID of Form B, Day 29, 1.0 h, read-out: Compound I Concentration, Mean
  concentration at 1 h: 9.25 ng/mL
100 mg, Cohort 6, 100 mg BID of Form B, Day 29, 1.0 h, read-out: Compound I Concentration, Median
  concentration at 1 h: 9.34 ng/mL
100 mg, Cohort 6, 100 mg BID of Form B, Day 29, 1.0 h, read-out: Compound I Concentration, Min
  concentration at 1 h: 1.79 ng/mL
100 mg, Cohort 6, 100 mg BID of Form B, Day 29, 2.0 h, read-out: Compound I Concentration, Max
  concentration at 2 h: 19.6 ng/mL
100 mg, Cohort 6, 100 mg BID of Form B, Day 29, 2.0 h, read-out: Compound I Concentration, Mean
  concentration at 2 h: 11 ng/mL
100 mg, Cohort 6, 100 mg BID of Form B, Day 29, 2.0 h, read-out: Compound I Concentration, Median
  concentration at 2 h: 11.8 ng/mL
100 mg, Cohort 6, 100 mg BID of Form B, Day 29, 2.0 h, read-out: Compound I Concentration, Min
  concentration at 2 h: 2.94 ng/mL
100 mg, Cohort 6, 100 mg BID of Form B, Day 29, 3.0 h, read-out: Compound I Concentration, Max
  concentration at 3 h: 20.5 ng/mL
100 mg, Cohort 6, 100 mg BID of Form B, Day 29, 3.0 h, read-out: Compound I Concentration, Mean
  concentration at 3 h: 10.5 ng/mL
100 mg, Cohort 6, 100 mg BID of Form B, Day 29, 3.0 h, read-out: Compound I Concentration, Median
  concentration at 3 h: 8.31 ng/mL
100 mg, Cohort 6, 100 mg BID of Form B, Day 29, 3.0 h, read-out: Compound I Concentration, Min
  concentration at 3 h: 4.4 ng/mL
100 mg, Cohort 6, 100 mg BID of Form B, Day 29, 4.0 h, read-out: Compound I Concentration, Max
  concentration at 4 h: 19.8 ng/mL
100 mg, Cohort 6, 100 mg BID of Form B, Day 29, 4.0 h, read-out: Compound I Concentration, Mean
  concentration at 4 h: 10.5 ng/mL
100 mg, Cohort 6, 100 mg BID of Form B, Day 29, 4.0 h, read-out: Compound I Concentration, Median
  concentration at 4 h: 9.26 ng/mL
100 mg, Cohort 6, 100 mg BID of Form B, Day 29, 4.0 h, read-out: Compound I Concentration, Min
  concentration at 4 h: 5.14 ng/mL
100 mg, Cohort 6, 100 mg BID of Form B, Day 29, 6.0 h, read-out: Compound I Concentration, Max
  concentration at 6 h: 16.2 ng/mL
100 mg, Cohort 6, 100 mg BID of Form B, Day 29, 6.0 h, read-out: Compound I Concentration, Mean
  concentration at 6 h: 8.82 ng/mL
100 mg, Cohort 6, 100 mg BID of Form B, Day 29, 6.0 h, read-out: Compound I Concentration, Median
  concentration at 6 h: 8.11 ng/mL
100 mg, Cohort 6, 100 mg BID of Form B, Day 29, 6.0 h, read-out: Compound I Concentration, Min
  concentration at 6 h: 4.1 ng/mL
100 mg, Cohort 6, 100 mg BID of Form B, Day 29, 8.0 h, read-out: Compound I Concentration, Max
  concentration at 8 h: 13.8 ng/mL
100 mg, Cohort 6, 100 mg BID of Form B, Day 29, 8.0 h, read-out: Compound I Concentration, Mean
  concentration at 8 h: 7.45 ng/mL
100 mg, Cohort 6, 100 mg BID of Form B, Day 29, 8.0 h, read-out: Compound I Concentration, Median
  concentration at 8 h: 6.57 ng/mL
100 mg, Cohort 6, 100 mg BID of Form B, Day 29, 8.0 h, read-out: Compound I Concentration, Min
  concentration at 8 h: 3.61 ng/mL
100 mg, Cohort 6, 100 mg BID of Form B, Day 29, 10.0 h, read-out: Compound I Concentration, Max
  concentration at 10 h: 11.4 ng/mL
100 mg, Cohort 6, 100 mg BID of Form B, Day 29, 10.0 h, read-out: Compound I Concentration, Mean
  concentration at 10 h: 6.23 ng/mL
100 mg, Cohort 6, 100 mg BID of Form B, Day 29, 10.0 h, read-out: Compound I Concentration, Median
  concentration at 10 h: 5.44 ng/mL
100 mg, Cohort 6, 100 mg BID of Form B, Day 29, 10.0 h, read-out: Compound I Concentration, Min
  concentration at 10 h: 2.88 ng/mL
100 mg, Cohort 6, 100 mg BID of Form B, Day 29, 12.0 h, read-out: Compound I Concentration, Max
  concentration at 12 h: 10.1 ng/mL
100 mg, Cohort 6, 100 mg BID of Form B, Day 29, 12.0 h, read-out: Compound I Concentration, Mean
  concentration at 12 h: 7.16 ng/mL
100 mg, Cohort 6, 100 mg BID of Form B, Day 29, 12.0 h, read-out: Compound I Concentration, Median
  concentration at 12 h: 8.36 ng/mL
100 mg, Cohort 6, 100 mg BID of Form B, Day 29, 12.0 h, read-out: Compound I Concentration, Min
  concentration at 12 h: 2.37 ng/mL
150 mg, 150 mg BID of Form B, Day 1, 0.0 h, Mean, read-out: Compound I Concentration
  concentration at 0 h: 0 ng/mL
150 mg, 150 mg BID of Form B, Day 1, 0.0 h, Median, read-out: Compound I Concentration
  concentration at 0 h: 0 ng/mL
150 mg, 150 mg BID of Form B, Day 1, 1.0 h, Mean, read-out: Compound I Concentration
  concentration at 1 h: 4.63 ng/mL
150 mg, 150 mg BID of Form B, Day 1, 1.0 h, Median, read-out: Compound I Concentration
  concentration at 1 h: 5.06 ng/mL
150 mg, 150 mg BID of Form B, Day 1, 2.0 h, Mean, read-out: Compound I Concentration
  concentration at 2 h: 11 ng/mL
150 mg, 150 mg BID of Form B, Day 1, 2.0 h, Median, read-out: Compound I Concentration
  concentration at 2 h: 11.6 ng/mL
150 mg, 150 mg BID of Form B, Day 1, 3.0 h, Mean, read-out: Compound I Concentration
  concentration at 3 h: 14.4 ng/mL
150 mg, 150 mg BID of Form B, Day 1, 3.0 h, Median, read-out: Compound I Concentration
  concentration at 3 h: 10.2 ng/mL
150 mg, 150 mg BID of Form B, Day 1, 4.0 h, Mean, read-out: Compound I Concentration
  concentration at 4 h: 20.7 ng/mL
150 mg, 150 mg BID of Form B, Day 1, 4.0 h, Median, read-out: Compound I Concentration
  concentration at 4 h: 21.5 ng/mL
150 mg, 150 mg BID of Form B, Day 1, 6.0 h, Mean, read-out: Compound I Concentration
  concentration at 6 h: 12.2 ng/mL
150 mg, 150 mg BID of Form B, Day 1, 6.0 h, Median, read-out: Compound I Concentration
  concentration at 6 h: 10.4 ng/mL
150 mg, 150 mg BID of Form B, Day 1, 8.0 h, Mean, read-out: Compound I Concentration
  concentration at 8 h: 10.1 ng/mL
150 mg, 150 mg BID of Form B, Day 1, 8.0 h, Median, read-out: Compound I Concentration
  concentration at 8 h: 9.95 ng/mL
150 mg, 150 mg BID of Form B, Day 1, 10.0 h, Mean, read-out: Compound I Concentration
  concentration at 10 h: 8.98 ng/mL
150 mg, 150 mg BID of Form B, Day 1, 10.0 h, Median, read-out: Compound I Concentration
  concentration at 10 h: 8.98 ng/mL
150 mg, 150 mg BID of Form B, Day 1, 12.0 h, Mean, read-out: Compound I Concentration
  concentration at 12 h: 7.73 ng/mL
150 mg, 150 mg BID of Form B, Day 1, 12.0 h, Median, read-out: Compound I Concentration
  concentration at 12 h: 7.38 ng/mL
[1]
  concentration at 8 day: 42.3 ng/mL
  concentration at 15 day: 35.7 ng/mL
150 mg, read-out: Trough Compound I Concentration, Mean
  concentration at 8 day: 26.8 ng/mL
[2]
  concentration at 8 day: 20.6 ng/mL
  concentration at 15 day: 23.3 ng/mL
150 mg, read-out: Trough Compound I Concentration, Min
  concentration at 8 day: 17.4 ng/mL
